# Experimental data published in US8426429B2, “2-amino-quinazoline derivatives useful as inhibitors of β-secretase (BACE)” (Jansssen Pharmaceutica N.V., priority 2004, dated 2013).
# Molecular target: T1, β-secretase (BACE) (Homo sapiens, UniProt P56817)
# T1 construct: purchased Panvera
# Test: BACE FS1 % Inhibition Assay
# Type: biochemical
# Details: FS1 substrate
# Summary of the method: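 Percent inhibition per compound concentration was referenced to vehicle-treated enzyme and no-enzyme wells. Enzyme at a 4 μg/mL working stock plus compound was mixed for 20 min at room temperature before the FS1 substrate (300 μg/mL working stock) was added for a 1 h room-temperature reaction.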
# T1 sequence (P56817 46-501): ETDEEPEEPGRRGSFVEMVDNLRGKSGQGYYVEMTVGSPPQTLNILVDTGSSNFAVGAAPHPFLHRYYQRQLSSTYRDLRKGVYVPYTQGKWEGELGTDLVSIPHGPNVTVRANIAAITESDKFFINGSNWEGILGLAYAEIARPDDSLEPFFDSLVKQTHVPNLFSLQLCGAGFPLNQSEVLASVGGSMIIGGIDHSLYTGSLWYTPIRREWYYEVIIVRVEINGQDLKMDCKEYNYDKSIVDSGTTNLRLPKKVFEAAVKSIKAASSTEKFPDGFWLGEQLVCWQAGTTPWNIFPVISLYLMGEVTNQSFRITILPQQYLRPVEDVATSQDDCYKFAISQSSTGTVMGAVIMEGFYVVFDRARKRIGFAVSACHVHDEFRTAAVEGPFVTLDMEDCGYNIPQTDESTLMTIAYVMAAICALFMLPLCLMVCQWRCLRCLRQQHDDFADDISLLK
SMILES,% Inhibition (FS) (0.3 μM compound) [%],% Inhibition (FS) (1 μM compound) [%],% Inhibition (FS) (3 μM compound) [%],"% Inhibition (FS) (0.3 μM compound, 0.3 µM) [%]","% Inhibition (FS) (1 μM compound, 1 µM) [%]","% Inhibition (FS) (3 μM compound, 3 µM) [%]","inhibition at 3 µM (3 μM compound, read-out: % Inhibition (FS)) [%]"
CC(C)(C)C(=O)NCCN1Cc2cc(-c3cnc4ccccc4c3)ccc2N=C1N [Compound 674],36,<30,41,,,,
Cc1ccccc1-c1ccc2c(c1)CN(CCNC(=O)CCC(F)(F)F)C(N)=N2 [Compound 678],51,88,99,,,,
Cc1ccccc1-c1ccc2c(c1)CN(CCNC(=O)CC(C)C(F)(F)F)C(N)=N2 (stereo not shown) [Compound 679],78,99,,,,,
CC(CC(=O)NCCN1Cc2cc(-c3ccccc3F)ccc2N=C1N)C(F)(F)F (stereo not shown) [Compound 681],67,100,,,,,
CC(CC(=O)NCCN1Cc2cc(-c3ccccc3)ccc2N=C1N)C(F)(F)F (stereo not shown) [Compound 685],50,90,,,,,
Cc1ccccc1-c1ccc2c(c1)CN(CCNC(=O)C1CCC(C(F)(F)F)CC1)C(N)=N2 (stereo not shown) [Compound 694],<30,<30,84,,,,
CC(=O)N1CCC(C(=O)NCCN2Cc3cc(-c4ccccc4C)ccc3N=C2N)CC1 [Compound 695],<30,<30,54,,,,
COc1ccccc1-c1ccc2c(c1)CN(CCNC(=O)C1CCOCC1)C(N)=N2 [Compound 697],<30,<30,63,,,,
COc1ccccc1-c1ccc2c(c1)CN(CCNC(=O)C1CCC(C(F)(F)F)CC1)C(N)=N2 (stereo not shown) [Compound 698],<30,<30,64,,,,
COc1cccc(F)c1-c1ccc2c(c1)CN(CCNC(=O)C1CCOCC1)C(N)=N2 [Compound 699],31,64,93,,,,
NC1=Nc2ccc(-c3ccccc3)cc2CN1CCNC(=O)C1CCC(C(F)(F)F)CC1 (stereo not shown) [Compound 701],<30,<30,54,,,,
CC(=O)N1CCC(C(=O)NCCN2Cc3cc(-c4ccccc4)ccc3N=C2N)CC1 [Compound 702],<30,<30,<30,,,,
COc1ccccc1-c1ccc2c(c1)CN([C@@H](CCC(=O)N(C)Cc1csc(-c3ccccc3)n1)C1CCCCC1)C(N)=N2 [Compound 716],<30,<30,72,,,,
COc1ccccc1-c1ccc2c(c1)CN([C@@H](CCC(=O)N(C)Cc1cnn(-c3ccccc3)c1)C1CCCCC1)C(N)=N2 [Compound 717],33,39,72,,,,
COc1ccccc1-c1ccc2c(c1)CN([C@@H](CCC(=O)N(C)Cc1cc(-c3ccccc3)on1)C1CCCCC1)C(N)=N2 [Compound 719],31,<30,81,,,,
CCOC(=O)C1CCC(N(C)C(=O)CCC(C2CCCCC2)N2Cc3cc(Oc4ccccc4)ccc3N=C2N)CC1 (stereo not shown) [Compound 737],,,,22,34,97,
CN(C(=O)CCC(C)(C)N1Cc2cc(Oc3ccccc3)ccc2N=C1N)C1CCCCC1 [Compound 738],14,28,61,,,,
CN(C(=O)CCC(C1CCCCC1)N1Cc2cc(Oc3ccccc3)ccc2N=C1N)C1(C(=O)O)CCCCC1 (stereo not shown) [Compound 741],−48,−38,−25,,,,
CN(C(=O)CCC(C1CCCCC1)N1Cc2cc(Oc3ccccc3)ccc2N=C1N)C1CCC(C(=O)OCc2ccccc2)CC1 (stereo not shown) [Compound 760],<30,44,89,,,,
CNC(=O)C1CCC(N(C)C(=O)CCC(C2CCCCC2)N2Cc3cc(Oc4ccccc4)ccc3N=C2N)CC1 (stereo not shown) [Compound 765],<30,56,97,,,,

# Further lines, results first:
% Inhibition (FS) (0.3 μM compound) [%],% Inhibition (FS) (1 μM compound) [%],% Inhibition (FS) (3 μM compound) [%],"% Inhibition (FS) (0.3 μM compound, 0.3 µM) [%]","% Inhibition (FS) (1 μM compound, 1 µM) [%]","% Inhibition (FS) (3 μM compound, 3 µM) [%]","inhibition at 3 µM (3 μM compound, read-out: % Inhibition (FS)) [%]",SMILES
35,<30,<30,,,,,CC(C)CCC(=O)NCCN1Cc2cc(-c3cnc4ccccc4c3)ccc2N=C1N [Compound 675]
33,<30,44,,,,,CCCCC(CC)C(=O)NCCN1Cc2cc(-c3cnc4ccccc4c3)ccc2N=C1N (stereo not shown) [Compound 676]
42,75,90,,,,,NC1=Nc2ccc(-c3ccccc3F)cc2CN1CCNC(=O)CCC(F)(F)F [Compound 680]
39,77,97,,,,,NC1=Nc2ccc(-c3ccccc3Cl)cc2CN1CCNC(=O)CCC(F)(F)F [Compound 682]
64,86,,,,,,CC(CC(=O)NCCN1Cc2cc(-c3ccccc3Cl)ccc2N=C1N)C(F)(F)F (stereo not shown) [Compound 683]
33,38,78,,,,,NC1=Nc2ccc(-c3ccccc3)cc2CN1CCNC(=O)CCC(F)(F)F [Compound 684]
<30,73,80,,,,,NC1=Nc2ccc(-c3ccc4ccccc4c3)cc2CN1CCNC(=O)CCC(F)(F)F [Compound 686]
<30,50,87,,,,,NC1=Nc2ccc(-c3ccccc3F)cc2CN1CCNC(=O)C1CCOCC1 [Compound 687]
<30,36,81,,,,,NC1=Nc2ccc(-c3ccccc3F)cc2CN1CCNC(=O)C1CCC(C(F)(F)F)CC1 (stereo not shown) [Compound 688]
33,82,,,,,,NC1=Nc2ccc(-c3ccccc3Cl)cc2CN1CCNC(=O)C1CCOCC1 [Compound 689]
<30,<30,52,,,,,NC1=Nc2ccc(-c3ccccc3Cl)cc2CN1CCNC(=O)C1CCC(C(F)(F)F)CC1 (stereo not shown) [Compound 690]
<30,<30,51,,,,,CC(=O)N1CCC(C(=O)NCCN2Cc3cc(-c4ccccc4Cl)ccc3N=C2N)CC1 [Compound 691]
<30,72,,,,,,COC1CCCC(C(=O)NCCN2Cc3cc(-c4ccccc4C)ccc3N=C2N)C1 (stereo not shown) [Compound 696]
<30,36,85,,,,,COc1cccc(F)c1-c1ccc2c(c1)CN(CCNC(=O)C1CCC(C(F)(F)F)CC1)C(N)=N2 (stereo not shown) [Compound 700]
<30,46,83,,,,,COC1CCCC(C(=O)NCCN2Cc3cc(-c4ccccc4)ccc3N=C2N)C1 (stereo not shown) [Compound 703]
<30,<30,<30,,,,,NC1=Nc2ccc(C3=CCCCC3)cc2CN1CCNC(=O)C1CCC(C(F)(F)F)CC1 (stereo not shown) [Compound 704]
<30,<30,<30,,,,,CC(=O)N1CCC(C(=O)NCCN2Cc3cc(C4=CCCCC4)ccc3N=C2N)CC1 [Compound 705]
<30,<30,<30,,,,,COC1CCCC(C(=O)NCCN2Cc3cc(C4=CCCC4)ccc3N=C2N)C1 (stereo not shown) [Compound 706]
<30,<30,<30,,,,,NC1=Nc2ccc(C3=CCCC3)cc2CN1CCNC(=O)C1CCC(C(F)(F)F)CC1 (stereo not shown) [Compound 707]
<30,30,,,,,,COc1ccccc1-c1ccc2c(c1)CN([C@@H](CCC(=O)N(C)Cc1cc(C)no1)C1CCCCC1)C(N)=N2 [Compound 718]
35,35,78,,,,,CN(Cc1csc(-c2ccccc2)n1)C(=O)CC[C@@H](C1CCCCC1)N1Cc2cc(-c3ccccc3F)ccc2N=C1N [Compound 722]
38,<30,65,,,,,CN(Cc1cc(-c2ccccc2)on1)C(=O)CC[C@@H](C1CCCCC1)N1Cc2cc(-c3ccccc3F)ccc2N=C1N [Compound 724]
46,80,,,,,,CN(CCc1ccccc1)C(=O)CC[C@@H](C1CCCCC1)N1Cc2cc(-c3ccccc3F)ccc2N=C1N [Compound 727]
,,130,,,,,CN(C(=O)CCC(C1CCOCC1)N1Cc2cc(Oc3ccccc3)ccc2N=C1N)C1CCC(C(=O)O)CC1 (stereo not shown) [Compound 743]
,,,115,114,,114,"CN(C(=O)CC[C@@H](C1CCOCC1)N1Cc2cc(Oc3ccccc3)ccc2N=C1N)[C@H]1CC[C@@H](C(=O)O)CC1 [Compound 745, (S)-Enantiomer of 4-cis-{[4-(2-Amino-6-phenoxy-4H-quinazolin-3-yl)-4-(tetrahydro-pyran-4-yl)-butyryl]-methyl-amino}-cyclohexanecarboxylic acid]"
,,,20,71,97,,CN(C(=O)CC[C@@H](C1CCOCC1)N1Cc2cc(Oc3ccccc3)ccc2N=C1N)[C@H]1CC[C@@H](C(=O)O)CC1 [Compound 748]
8,35,89,,,,,CN(C(=O)CC[C@@H](C1CCCCC1)N1Cc2ccc(Oc3ccccc3)cc2N=C1N)C1CCCCC1 [Compound 754]
,,,<30,84,,,CCOC(=O)C1CCC(N(C)C(=O)CCC(C2CCCCC2)N2Cc3cc(Oc4ccccc4)ccc3N=C2N)CC1 (stereo not shown) [Compound 763]
